Assay results reported in patent US6806267B1, “Apoptosis-inducing compounds” (priority 1998, dated 2004).
Like-named read-outs stand apart in the source and are kept apart here.

Assays:
Format in all cases: cell-based, human
[1] = test system: tyrosine phosphorylated proteins; experiment: Protein tyrosine phosphorylation Western blot, Jurkat cells
Experimental: Jurkat and CML cells (5×10^6) were harvested by centrifuigation at 1800 g for 10 min at 4° C. After being washed once with ice-cold phosphate-buffered saline, the cell pellet was suspended in 100 μl of ice-cold lysis buffer (50 mM Tris-HCl, pH 8.0, 150 mM NaCl, 0.1%.SDS, 1% Triton X-100, 1 mM sodium 1 mM phenylmethylsulfonyl, 10 ng/ml leupeptin and 10 ng/ml of aprotinin). The cells were left to sit on ice for 10 min and then centrifuged at 20,000 g for 20 min. The resulting supernatant was stored at −70° C. until measurement of tyrosine phosphorylation. Protein determination was measured by using the Bradford assay. Equal amounts of protein were resolved by SDS-polyacrylamide gel electrophoresis in 15% gels and transferred onto polyvinylidene difluoride (PVDF) membranes. Membranes were blocked with Tris-buffered saline with Tween 20 (10 mM Tris-HCl, pH 8.0, 150 mM NaCl, 0.05% Tween 20) containing 1% w/v BSA and probed with anti-phosphotyrosine antibody. Blots were washed, incubated with goat anti-mouse IgG peroxidase conjugate and developed by ECL according to the manufacturer's recommendations.

[2] = test system: K562 cells; experiment: Apoptosis in K562 cells, cytospin and staining; details: K562, 16 hours
[3] = test system: p38; experiment: Western blot of p38 activation in K562 cells; details: K562, 5 min up to 8 hours
[4] = test system: PARP (poly ADP-ribose polymerase); experiment: Western blot of PARP cleavage in CML cells
Experimental: CML cells were seeded at 2×10^6 cells in 5 mls of growth medium, and treated with 10 μM PBOX-6 for 16 and 24 hr. Hela cells were seeded at 1×10^6 cells per 25 cm^2 flask. Following a 24 hour incubation, the cells were treated with PBOX-3 for a further 48 hours and the cells were scraped up. Cells were then centrifuged at 500 g for 5 min, the supernatant was removed and the pellet was resuspended in 200 μl of PARP sample buffer (62.5 mM Tris/HCl pH 6.8, 6 M urea, 10% (w/v) glycerol, 2% (w/v) SDS, 0.00125% bromophenol blue, and 5% (v/v) β-mercaptoethanol was added immediately before use). Samples were sonicated for 15 sec before aliquoting into 15 μl volumes. Samples were stored at −20° C. until use. 10-15 μl of thawed samples were resolved directly on a 10% polyacrylamide gel and transferred onto PVDF membrane at room temperature using wet transfer apparatus. After transfer, the membrane was blocked overnight in PBS containing 5% dry milk (Marvel). After blocking, the membrane was washed in PBST for 2×2 minutes before incubating for 1 hr with anti-PARP antibody (2 μg/ml in PBST containing 1% dry milk). Following incubation the membrane was washed for 20 minutes in PBST and incubated with goat anti mouse HRP conjugated secondary antibody (1:1000 dilution in PBST containing 1% dry milk). After washing in PBST for 30 minutes, ECL was used to visualise the proteins. […]

[5] = test system: CML cell lines K562, KYO.1 and Lama 84; experiment: Apoptosis in CML cell lines, cytospin and staining; details: 24 hours (10 μM elsewhere in the source)
[6] = test system: JNK1 and JNK2; experiment: Western blot of JNK activation in HL-60 cells
[7] = test system: BCR-abl; experiment: Western blot analysis of BCR-abl in CML cells
[8] = test system: HL-60 cells; experiment: Agarose gel electrophoresis of DNA ladders, HL-60 cells; details: 24 hours
[9] = test system: JNK1 and JNK2; details: K562 cells
[10] = test system: CEM (T lymphoblastoid) cells; experiment: Apoptosis in CEM cells (neo and Bcl-2 overexpressing)
[11] = test system: NFκB; experiment: NF kappa B binding activity, HL-60 nuclear extracts; details: HL-60 cells
Experimental: Cells were fractionated, and nuclear extracts were prepared as described by Stylianou et al. (1992). Briefly, cells were added to ice-cold phosphate-buffered saline and centrifuged using a swing out rotor at 136×g. They were washed in buffer A (10 mM Hepes, pH 7.9, 1.5 mM MgCl2, 10 mM KCl, […] [PMSF]) and centrifuged at 10000×g for 10 min. They were treated with buffer A+0.1% (vol/vol) Nonidet P40 on ice for 10 min. They were then centrifuged at 10000×g for 10 min and the pellet was treated with buffer C (20 mM Hepes, pH 7.9, 420 mM NaCl, 1.5 mM MgCl2, 2 mM EDTA, 20% [vol/vol] glycerol, 0.5 mM PMSF) on ice for 15 min. This material was centrifuged at 10000×g for 10 min and the supernatant was added to 75 u l of buffer D [10 mM Hepes, pH 7.9, 50 mM KCl, 0.2 mM EDTA, 20% (vol/vol) glycerol, 0.5 mM PMSF] per sample. The protein concentration in this crude nuclear extract was determined using the method of Bradford (1976). Protein (4 μg) was incubated with 10000 cpm of a ^32P-labelled oligonucleotide, containing the consensus sequence for NF kappa B, with binding buffer [40% (vol/vol) glycerol, 1 mM EDTA, 10 mM Tris, pH 7.5, 100 mM NaCl, 0.1 mg/ml nuclease free BSA] and 2 μg of poly(dI-dC) at room temperature for 30 min. Samples were resolved on a 5% native polyacrylamide gel which was subsequently dried and autoradiographed at −70° C. overnight.

[12] = test system: p42-44; experiment: Western blot of p42-44 activation in K562 cells

## CN(C)C(=O)OC1=C(c2cccc3ccccc23)Oc2ccccc2-n2cccc21 [PBOX-6, 7-((Dimethylcarbamoyl)oxy)-6-(1-naphthyl)pyrrolo[2,1-d][1,5]benzoxazepine]
[1]
  protein tyrosine phosphorylation: time and dose-dependent decrease in protein tyrosine phosphorylation
[2]
  cells that had undergone apoptosis: 40-50%
[3]
  activation of p38: failed to activate p38
[4]; K562 24 hours, Lama 84 16 hours
  PARP cleavage: PARP cleavage occurs
[4]; KYO.1 cells, 24 hours
  PARP cleavage: result in PARP cleavage
[5]
  cells that had undergone apoptosis: approximately 50%
[6]
  activation of JNK: transient activation of 2 JNK isoforms
  time of peak JNK activation: 1 h
[7]; K562 and KYO.1 cells
  BCR-abl expression: downregulation of BCR-abl was detected, but not until 24 hours
[7]; Lama 84 cells, up to 72 hours
  downregulation of BCR-abl: not detected
[8]
  DNA fragmentation (ladder pattern): resulted in DNA fragmentation
[9]
  time at which JNK activation first becomes visible: 15 min
  time of peak JNK activation: 30 to 45 min
[10]; Bcl-2 overexpressing
  induction of apoptosis in CEM cells overexpressing Bcl-2: dose-dependent induction of apoptosis
[10]; normal (neo) CEM
  induction of apoptosis in normal CEM cells: dose-dependent induction of apoptosis
[11]
  effect on NFκB: failed to affect NFκB expression
[12]
  activation of p42-44: not activated
